Results taken from paper PMC10901292 (European journal of medicinal chemistry, 2024).
Each block holds one compound with its values, some of them ahead of it.

Experiments:
EZH2 [1] = molecular target: T1, EZH2 (Homo sapiens, UniProt Q15910); experiment: Western blot of EZH2 protein level in MV4; type: cell-based; conditions: 11 cells, 24 h treatment, all tested concentrations (Fig. 8A, 8C)
Target sequence in this assay (Q15910 whole entry): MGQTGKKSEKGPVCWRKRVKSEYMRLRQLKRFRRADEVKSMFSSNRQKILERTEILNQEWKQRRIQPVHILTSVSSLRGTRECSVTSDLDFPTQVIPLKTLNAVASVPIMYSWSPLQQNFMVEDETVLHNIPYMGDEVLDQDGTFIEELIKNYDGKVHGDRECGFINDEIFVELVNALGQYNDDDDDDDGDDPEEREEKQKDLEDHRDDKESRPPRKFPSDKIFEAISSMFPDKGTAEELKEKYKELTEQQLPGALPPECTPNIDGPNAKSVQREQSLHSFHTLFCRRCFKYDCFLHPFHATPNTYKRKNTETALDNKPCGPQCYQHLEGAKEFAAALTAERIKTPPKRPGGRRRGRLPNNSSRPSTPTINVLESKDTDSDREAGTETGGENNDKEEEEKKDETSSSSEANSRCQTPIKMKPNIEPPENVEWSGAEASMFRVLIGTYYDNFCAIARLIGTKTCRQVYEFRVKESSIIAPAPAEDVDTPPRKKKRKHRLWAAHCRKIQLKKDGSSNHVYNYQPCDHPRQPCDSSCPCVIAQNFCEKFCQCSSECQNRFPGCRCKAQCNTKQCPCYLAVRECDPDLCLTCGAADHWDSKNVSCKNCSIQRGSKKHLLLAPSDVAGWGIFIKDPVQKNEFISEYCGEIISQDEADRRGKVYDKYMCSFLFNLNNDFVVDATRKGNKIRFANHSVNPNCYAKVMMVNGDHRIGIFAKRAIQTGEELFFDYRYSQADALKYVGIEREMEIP
Target sequence in this assay (O75530 2-441 partner limits assumed): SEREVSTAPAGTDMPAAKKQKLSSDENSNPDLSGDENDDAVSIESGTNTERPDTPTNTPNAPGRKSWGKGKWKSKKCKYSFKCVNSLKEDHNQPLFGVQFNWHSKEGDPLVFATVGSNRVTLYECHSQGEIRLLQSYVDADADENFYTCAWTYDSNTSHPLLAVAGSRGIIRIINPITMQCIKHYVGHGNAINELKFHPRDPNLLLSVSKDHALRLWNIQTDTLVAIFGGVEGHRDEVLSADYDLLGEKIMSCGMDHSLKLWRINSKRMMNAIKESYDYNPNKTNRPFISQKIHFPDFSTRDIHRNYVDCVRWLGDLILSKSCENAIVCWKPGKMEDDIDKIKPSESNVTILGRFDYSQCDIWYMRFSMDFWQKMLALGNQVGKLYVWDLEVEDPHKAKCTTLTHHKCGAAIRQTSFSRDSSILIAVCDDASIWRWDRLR
Target sequence in this assay (Q15022 whole entry partner): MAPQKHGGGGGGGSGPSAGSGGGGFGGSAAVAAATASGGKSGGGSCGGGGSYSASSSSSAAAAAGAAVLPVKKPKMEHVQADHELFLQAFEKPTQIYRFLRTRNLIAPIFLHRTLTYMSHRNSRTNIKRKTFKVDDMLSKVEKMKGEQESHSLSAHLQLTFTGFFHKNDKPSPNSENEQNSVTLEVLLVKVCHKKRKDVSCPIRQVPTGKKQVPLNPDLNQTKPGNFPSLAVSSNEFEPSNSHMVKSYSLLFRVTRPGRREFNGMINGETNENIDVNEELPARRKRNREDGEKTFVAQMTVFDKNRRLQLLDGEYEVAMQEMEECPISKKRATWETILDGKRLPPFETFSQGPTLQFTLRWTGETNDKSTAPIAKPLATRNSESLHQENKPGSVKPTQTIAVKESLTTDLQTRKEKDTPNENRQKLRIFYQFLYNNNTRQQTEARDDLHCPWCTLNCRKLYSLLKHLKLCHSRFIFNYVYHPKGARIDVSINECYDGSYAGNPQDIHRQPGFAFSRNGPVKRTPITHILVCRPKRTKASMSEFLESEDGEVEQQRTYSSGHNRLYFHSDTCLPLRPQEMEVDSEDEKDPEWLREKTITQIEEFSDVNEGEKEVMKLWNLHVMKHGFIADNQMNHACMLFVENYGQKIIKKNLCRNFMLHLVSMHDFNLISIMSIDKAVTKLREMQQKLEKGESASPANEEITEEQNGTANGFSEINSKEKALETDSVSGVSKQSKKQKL

EZH2 [2] = molecular target: T1, EZH2; experiment: Western blot of EZH2 protein level in EOL-1 cells; type: cell-based; conditions: for EZH2 degradation (EZH2 protein level): 24 h treatment
Target sequence in this assay (Q15910 whole entry): as the sequence (Q15910 whole entry) above
Target sequence in this assay (O75530 2-441 partner limits assumed): as the sequence (O75530 2-441 partner limits assumed) above
Target sequence in this assay (Q15022 whole entry partner): as the sequence (Q15022 whole entry partner) above

BT549 cells = experiment: Cell viability WST-8; type: cell-based
MDA-MB-468 cells = experiment: Cell viability WST-8; type: cell-based
BT549 in vitro spheroids = experiment: Bio-Assembler 3D in vitro spheroid TNBC model; type: cell-based; conditions: 5 d treatment
EZH2 [3] = molecular target: T1, EZH2; experiment: EZH2 methyltransferase inhibition assay; type: biochemical; conditions: Fig. S2A
EOL-1 cells = experiment: Cell viability WST-8; type: cell-based
H3K27me3 = experiment: Western blot of H3K27me3 mark in EOL-1 cells; type: cell-based; conditions: 24 h treatment (Fig. 4A)
[4] = system: panel of 20 protein methyltransferases; experiment: Radioactive methyltransferase selectivity panel; type: biochemical; conditions: 10 μM, two replicates
EZH2 [5] = molecular target: T1, EZH2; experiment: Western blot of EZH2 protein level in RS4; type: cell-based; conditions: 11 cells, 24 h treatment, 0.1 and 0.3 μM
Target sequence in this assay (Q15910 whole entry): as the sequence (Q15910 whole entry) above
Target sequence in this assay (O75530 2-441 partner limits assumed): as the sequence (O75530 2-441 partner limits assumed) above
Target sequence in this assay (Q15022 whole entry partner): as the sequence (Q15022 whole entry partner) above

EED = experiment: Western blot of EED in EOL-1 cells; type: cell-based; conditions: 24 h treatment (Fig. 4B)
EZH2 [6] = molecular target: T1, EZH2; experiment: Western blot of EZH2 protein level in MDA-MB-468 cells; type: cell-based; conditions: 48 h treatment
Target sequence in this assay (Q15910 whole entry): as the sequence (Q15910 whole entry) above
Target sequence in this assay (O75530 2-441 partner limits assumed): as the sequence (O75530 2-441 partner limits assumed) above
Target sequence in this assay (Q15022 whole entry partner): as the sequence (Q15022 whole entry partner) above

MV4; 11 cells = experiment: Cell viability WST-8; type: cell-based
[7] = Tolerability observed in the mouse PK study; conditions: mice, single IP injection 50 mg/kg
EZH1 [8] = molecular target: T2, EZH1 (Homo sapiens, UniProt Q92800); experiment: EZH1 methyltransferase inhibition assay; type: biochemical; conditions: Fig. S2B
EZH1 [9] = molecular target: T2, EZH1; experiment: Western blot of EZH1 degradation; type: cell-based; conditions: Fig. S3
Target sequence in this assay (Q92800 whole entry): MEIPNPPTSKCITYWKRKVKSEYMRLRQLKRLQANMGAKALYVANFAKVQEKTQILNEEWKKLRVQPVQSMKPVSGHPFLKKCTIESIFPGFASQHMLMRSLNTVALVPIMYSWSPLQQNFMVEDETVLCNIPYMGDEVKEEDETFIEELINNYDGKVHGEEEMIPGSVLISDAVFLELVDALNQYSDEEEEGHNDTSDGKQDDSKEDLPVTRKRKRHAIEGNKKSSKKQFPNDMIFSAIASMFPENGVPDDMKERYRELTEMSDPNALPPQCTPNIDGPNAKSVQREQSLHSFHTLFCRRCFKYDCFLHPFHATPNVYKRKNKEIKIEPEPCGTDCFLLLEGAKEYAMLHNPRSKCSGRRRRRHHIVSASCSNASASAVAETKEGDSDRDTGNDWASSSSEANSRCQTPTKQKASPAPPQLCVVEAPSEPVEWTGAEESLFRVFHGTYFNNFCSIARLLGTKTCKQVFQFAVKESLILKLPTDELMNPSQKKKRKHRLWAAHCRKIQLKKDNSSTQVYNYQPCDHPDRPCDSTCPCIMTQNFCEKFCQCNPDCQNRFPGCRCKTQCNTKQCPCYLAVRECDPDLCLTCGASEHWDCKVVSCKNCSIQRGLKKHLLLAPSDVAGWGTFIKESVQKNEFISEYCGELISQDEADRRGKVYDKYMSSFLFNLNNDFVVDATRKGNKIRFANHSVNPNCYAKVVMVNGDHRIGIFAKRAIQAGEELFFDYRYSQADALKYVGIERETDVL
Target sequence in this assay (O75530 2-441 partner limits assumed): as the sequence (O75530 2-441 partner limits assumed) above
Target sequence in this assay (Q15022 whole entry partner): as the sequence (Q15022 whole entry partner) above

EZH2 [10] = molecular target: T1, EZH2; experiment: Western blot of EZH2 protein level in BT549 cells; type: cell-based; conditions: 48 h treatment
Target sequence in this assay (Q15910 whole entry): as the sequence (Q15910 whole entry) above
Target sequence in this assay (O75530 2-441 partner limits assumed): as the sequence (O75530 2-441 partner limits assumed) above
Target sequence in this assay (Q15022 whole entry partner): as the sequence (Q15022 whole entry partner) above

K562 cells = experiment: Cell viability assay, K562; type: cell-based; conditions: K562 cells (insensitive to EZH2 KO), Fig. S4
[11] = Mouse pharmacokinetic study

Compound: (2R,4S)-1-((S)-2-(11-(3-(4-((3’-(((4,6-dimethyl-2-oxo-1,2-dihydropyridin-3-yl)methyl)carbamoyl)-5’-(ethyl(tetrahydro-2H-pyran-4-yl)amino)-4′-methyl-[1,1′-biphenyl]-4-yl)methyl)piperazin-1-yl)propanamido)undecanamido)-3,3-dimethylbutanoyl)-4-hydroxy-N-(4-(4-methylthiazol-5-yl)benzyl)pyrrolidine-2-carboxamide [MS8847N2]
EZH2 degradation (EZH2 [1]): did not induce EZH2 degradation

EZH2 degradation (EZH2 [1]): did not induce EZH2 degradation
Compound: CCN(c1cc(-c2ccc(CN3CCN(CCC(=O)NCCCCCCCCCCC(=O)N[C@H](C(=O)N4C[C@H](O)C[C@H]4C(=O)NCc4ccc(-c5scnc5C)cc4)C(C)(C)C)CC3)cc2)cc(C(=O)N(C)Cc2c(C)cc(C)n(C)c2=O)c1C)C1CCOCC1 [MS8847N1, (2S,4R)-1-((S)-2-(11-(3-(4-((3’-(ethyl(tetrahydro-2H-pyran-4-yl)amino)-4′-methyl-5’-(methyl((1,4,6-trimethyl-2-oxo-1,2-dihydropyridin-3-yl)methyl)carbamoyl)-[1,1′-biphenyl]-4-yl)methyl)piperazin-1-yl)propanamido)undecanamido)-3,3-dimethylbutanoyl)-4-hydroxy-N-(4-(4-methylthiazol-5-yl)benzyl)pyrrolidine-2-carboxamide]

EZH2 degradation (EZH2 protein level) (EZH2 [2]; 1 μM (Fig. 3)): less profoundly
Compound: CCN(c1cc(-c2ccc(CN3CCN(CCC(=O)NCCCCCCCCCC(=O)N[C@H](C(=O)N4C[C@H](O)C[C@H]4C(=O)NCc4ccc(-c5scnc5C)cc4)C(C)(C)C)CC3)cc2)cc(C(=O)NCc2c(C)cc(C)[nH]c2=O)c1C)C1CCOCC1 [Compound 7, (2S,4R)-1-((S)-2-(10-(3-(4-((3’-(((4,6-dimethyl-2-oxo-1,2-dihydropyridin-3-yl)methyl)carbamoyl)-5’-(ethyl(tetrahydro-2H-pyran-4-yl)amino)-4′-methyl-[1,1′-biphenyl]-4-yl)methyl)piperazin-1-yl)propanamido)decanamido)-3,3-dimethylbutanoyl)-4-hydroxy-N-(4-(4-methylthiazol-5-yl)benzyl)pyrrolidine-2-carboxamide]
EZH2 degradation (EZH2 protein level) (EZH2 [2]; 0.1 μM (Fig. 3)): reduced the EZH2 protein level completely

EZH2 degradation (EZH2 protein level) (EZH2 [2]; SAR study (Fig. 3)): partial degradation
Compound: CCN(c1cc(-c2ccc(CN3CCN(CCC(=O)NCCCCCCCCC(=O)N[C@H](C(=O)N4C[C@H](O)C[C@H]4C(=O)NCc4ccc(-c5scnc5C)cc4)C(C)(C)C)CC3)cc2)cc(C(=O)NCc2c(C)cc(C)[nH]c2=O)c1C)C1CCOCC1 [Compound 6, (2S,4R)-1-((S)-2-(9-(3-(4-((3’-(((4,6-dimethyl-2-oxo-1,2-dihydropyridin-3-yl)methyl)carbamoyl)-5’-(ethyl(tetrahydro-2H-pyran-4-yl)amino)-4′-methyl-[1,1′-biphenyl]-4-yl)methyl)piperazin-1-yl)propanamido)nonanamido)-3,3-dimethylbutanoyl)-4-hydroxy-N-(4-(4-methylthiazol-5-yl)benzyl)pyrrolidine-2-carboxamide]

Compound: CCN(c1cc(-c2ccc(CN3CCOCC3)cc2)cc(C(=O)NCc2c(C)cc(C)[nH]c2=O)c1C)C1CCOCC1 [EPZ-6438, Tazemetostat]
effect on cell growth (BT549 cells): no effect
effect on cell growth (MDA-MB-468 cells): no effect

EZH2 degradation (EZH2 protein level) (EZH2 [2]; SAR study (Fig. 3)): partial degradation
Compound: CCN(c1cc(-c2ccc(CN3CCN(CCC(=O)NCCCCCCCC(=O)N[C@H](C(=O)N4C[C@H](O)C[C@H]4C(=O)NCc4ccc(-c5scnc5C)cc4)C(C)(C)C)CC3)cc2)cc(C(=O)NCc2c(C)cc(C)[nH]c2=O)c1C)C1CCOCC1 [Compound 5, (2S,4R)-1-((S)-2-(8-(3-(4-((3’-(((4,6-dimethyl-2-oxo-1,2-dihydropyridin-3-yl)methyl)carbamoyl)-5’-(ethyl(tetrahydro-2H-pyran-4-yl)amino)-4′-methyl-[1,1′-biphenyl]-4-yl)methyl)piperazin-1-yl)propanamido)octanamido)-3,3-dimethylbutanoyl)-4-hydroxy-N-(4-(4-methylthiazol-5-yl)benzyl)pyrrolidine-2-carboxamide]

inhibition of the enzymatic activity of EZH2 (EZH2 [3]): inhibits
inhibition of any of the 20 methyltransferases [4]: ≤ 50%
EZH2 degradation (EZH2 [5]): induced EZH2 degradation
EZH2 degradation (EZH2 [6]): potent EZH2 degradation
fold more potent than U3i (cell growth IC50) (MV4; 11 cells): over 2 fold
EZH2 degradation (EZH2 [1]): near-complete degradation
inhibition of the enzymatic activity of EZH1 (EZH1 [8]): inhibits
EZH1 degradation (EZH1 [9]): does not degrade
EZH2 degradation (EZH2 [10]): potent EZH2 degradation
time at which Cmax was observed ([11]; male Swiss albino mice, single IP injection 50 mg/kg, HCl form): 4 h
concentration at 9 h ([11]; male, Swiss Albino, mouse, plasma, ip, 50 mg/kg): > 1000 nM
time at which EZH2 degradation started (EZH2 [2]; 300 nM): 8 h
time to maximum EZH2 degradation (EZH2 [2]; 300 nM): ≤ 24 h
EZH2 degradation (EZH2 [2]; 24 h, 0.1 and 0.3 μM, comparison of five degraders (Fig. 7A)): complete degradation
EZH2 degradation (EZH2 [2]; 24 h treatment at the indicated concentration (Fig. 4A, Fig. 6A)): effectively induced EZH2 degradation
EZH2 degradation (EZH2 protein level) (EZH2 [2]; 0.1 μM (Fig. 3)): complete EZH2 degradation
EZH2 degradation (EZH2 protein level) (EZH2 [2]; 1 μM (Fig. 3)): complete EZH2 degradation
Compound: CCN(c1cc(-c2ccc(CN3CCN(CCC(=O)NCCCCCCCCCCC(=O)N[C@H](C(=O)N4C[C@H](O)C[C@H]4C(=O)NCc4ccc(-c5scnc5C)cc4)C(C)(C)C)CC3)cc2)cc(C(=O)NCc2c(C)cc(C)[nH]c2=O)c1C)C1CCOCC1 [MS8847, (2S,4R)-1-((S)-2-(11-(3-(4-((3’-(((4,6-dimethyl-2-oxo-1,2-dihydropyridin-3-yl)methyl)carbamoyl)-5’-(ethyl(tetrahydro-2H-pyran-4-yl)amino)-4′-methyl-[1,1′-biphenyl]-4-yl)methyl)piperazin-1-yl)propanamido)undecanamido)-3,3-dimethylbutanoyl)-4-hydroxy-N-(4-(4-methylthiazol-5-yl)benzyl)pyrrolidine-2-carboxamide]
cell viability of BT549 cells in spheroids (Cell Titer Glo 3D) (BT549 in vitro spheroids): significantly reduced
size of BT549 in vitro spheroids (BT549 in vitro spheroids; compared to DMSO-treated control tumors): significantly reduced
fold more potent than MS8815 (anti-proliferative IC50) (EOL-1 cells): more than 3 fold
reduction of the H3K27me3 mark (H3K27me3): reduced the H3K27me3 mark
EED degradation (EED): potently degraded
clinical signs of toxicity [7]: did not exhibit obvious clinical signs of toxicity
cell growth inhibition (K562 cells): did not inhibit cell growth
